Assay results reported in EP3378852A1, “AMORPHOUS FORM OF APREMILAST, PREPARATION METHOD THEREFOR, AND APPLICATION THEREOF” (Changzhou Ainuoxinrui Pharmaceuticals, Ltd., priority 2015, dated 2017).
≈ marks a conversion by molar mass, not a printed value. One block for each compound: values may come before it.

Columns and labels:
Type in all cases: physicochemical
[1] = Determination of apparent solubility (shake flask, 37 °C, 12 h, HPLC external standard); conditions: for Apparent solubility / solubility at 12 h: 37 °C ± 0.5 °C, 12h; for solubility at 12 h: thermodynamic from solid
Method: Example 11: Determination of Apparent solubility
The apparent solubility of the amorphous form of Apremilast in the present invention and the Apremilast crystal form is compared.
The test objects were as follows: the amorphous form of Apremilast obtained in Example 1 of the present invention; the crystal Form B of Apremilast was prepared according to the patent CN102702070 Example 12. […]
Preparation of diluents of different pH: • (1) pH=1.0 diluent: Add 9 mL of concentrated HCl to a 1000 mL of volumetric flask, diluted to the volume with water. • (2) pH=2.0 diluent: Solution A: Transfer 16.6 mL of phosphoric acid to a 100 mL volumetric flask, dilute to the volume with water, shake to mix. Solution B: Weigh and transfer 71.63g of […] phosphate to a 1000 mL of volumetric flask, dilute to the volume with water, dissolve and mix well. […]
Example 51: Determination of Apparent solubility
The test objects were as follows: the solid dispersion of amorphous Apremilast obtained in Example 23 of the present invention; the physical mixture comprising Apremilast crystalline (Apremilast crystal Form B, sorbitol and polyacrylic resin Eudragit L100 were mixed physically, and the weight ratio is 1:1:1, and the crystal Form B of Apremilast was prepared according to the patent CN102702070 Example 12.).

[2] = Impact factor test (high temperature / high humidity stress stability; related substances by HPLC, crystallinity by XRPD)
Method: Example 9: Impact factor test of the amorphous Apremilast
Material: Amorphous Apremilast was prepared according to the method of Example 1
(§1) Experiment conditions: temperature 40 °C ± 2 °C, humidity 75% ± 5%
The substance was detected by HPLC.
Example 46: Impact factor test of the solid dispersion of amorphous Apremilast and hydroxypropylcellulose SSL and povidone K30
Material: the solid dispersion of amorphous Apremilast and hydroxypropylcellulose SSL and povidone K30 was prepared according to the method of Example 12
Experiment conditions: temperature 40 °C ± 2 °C, humidity 75% ± 5% The substance was detected by HPLC.
Example 49: Impact factor test of the solid dispersion of amorphous Apremilast, sorbitol and polyacrylic resin Eudragit L100 […]

[3] = Accelerated stability test (related substances by HPLC, crystallinity by XRPD); conditions: for Related substances (Total impurities %) / crystalline (XRPD): Temperature: 40°C±2°C, Humidity: 75%±5%
Method: Example 10: Accelerated stability test of the amorphous Apremilast
Material: amorphous Apremilsat was prepared according to the method of Example 1.
as §1
The substance was detected by HPLC. […]

[4] = Temperature 40 °C ± 2 °C, 0 day
[5] = Temperature 40 °C ± 2 °C, 5 days
[6] = Temperature 40 °C ± 2 °C, 10 days
[7] = Temperature 60 °C ± 2 °C, 0 day
[8] = Temperature 60 °C ± 2 °C, 5 days
[9] = Temperature 60 °C ± 2 °C, 10 days
[10] = conditions of high temperature, high humidity after 10 days
[11] = accelerated test conditions after 6 months

Apparent solubility ([1]; pH value of Dilution 2.0): 7.86 µg/mL
Apparent solubility ([1]; pH value of Dilution 3.0): 48.12 µg/mL
Apparent solubility ([1]; pH value of Dilution 4.5): 24.18 µg/mL
Apparent solubility ([1]; pH value of Dilution 5.0): 9.99 µg/mL
Apparent solubility ([1]; pH value of Dilution 5.6): 16.71 µg/mL
Apparent solubility ([1]; pH value of Dilution 6.8): 12.53 µg/mL
Apparent solubility ([1]; pH value of Dilution 7.4): 10.71 µg/mL
Structure (SMILES): CCOc1cc([C@@H](CS(C)(=O)=O)N2C(=O)c3cccc(NC(C)=O)c3C2=O)ccc1OC [The crystal Form B of Apremilast, N-[2-[(1S)-1-(3-ethoxy-4-Methoxyphenyl)-2-(Methylsulfonyl)ethyl]-2,3-dihydro-1,3-dioxo-1H-isoindol-4-yl]-Acetamide, reference compound]

Related substances (Total impurities %) ([2]; Humidity 75%±5%, 0 day): 0.08%
Related substances (Total impurities %) ([2]; Humidity 75%±5%, 5 days): 0.08%
Related substances (Total impurities %) ([2]; Humidity 75%±5%, 10 days): 0.09%
Related substances (Total impurities %) ([2]; Humidity 90%±5%, 0 day): 0.08%
Related substances (Total impurities %) ([2]; Humidity 90%±5%, 5 days): 0.09%
Related substances (Total impurities %) ([2]; Humidity 90%±5%, 10 days): 0.11%
Related substances (Total impurities %) [2, 4]: 0.08%
Related substances (Total impurities %) [2, 5]: 0.10%
Related substances (Total impurities %) [2, 6]: 0.12%
Related substances (Total impurities %) [2, 7]: 0.08%
Related substances (Total impurities %) [2, 8]: 0.12%
Related substances (Total impurities %) [2, 9]: 0.14%
changes in the related substances [2, 10]: no significant changes
Related substances (Total impurities %) ([3]; 0 month): 0.08%
Related substances (Total impurities %) ([3]; 1 month): 0.10%
Related substances (Total impurities %) ([3]; 2 months): 0.14%
Related substances (Total impurities %) ([3]; 3 months): 0.16%
Related substances (Total impurities %) ([3]; 6 months): 0.18%
changes in the related substances [3, 11]: no significant changes
apparent solubility compared with the crystal form or the physical mixture comprising crystal Form B ([1]; at each pH): significantly higher
apparent solubility increases ([1]; in most pH conditions): more than 60%
solubility at 12 h ([1]; pH 3.0 acetate diluent, 37 °C, pH 3, aqueous buffer, pH value of Dilution 3.0): 66.8 µg/mL (≈ 145 µM)
solubility at 12 h ([1]; pH 4.5 diluent, 37 °C, pH 4.5, aqueous buffer, pH value of Dilution 4.5): 42.2 µg/mL (≈ 91.7 µM)
solubility at 12 h ([1]; pH 6.8 phosphate diluent, 37 °C, pH 6.8, aqueous buffer, pH value of Dilution 6.8): 23.2 µg/mL (≈ 50.4 µM)
solubility at 12 h ([1]; pH 7.4 phosphate diluent, 37 °C, pH 7.4, aqueous buffer, pH value of Dilution 7.4): 18.7 µg/mL (≈ 40.6 µM)
Apparent solubility ([1]; pH value of Dilution 2.0, listed as The amorphous form of Apremilast obtained in Example 1): 19.32 µg/mL
Apparent solubility ([1]; pH value of Dilution 5.0, listed as The amorphous form of Apremilast obtained in Example 1): 22.81 µg/mL
solubility at 12 h ([1]; phthalate buffer pH 5.6, 37 °C, pH 5.6, aqueous buffer, pH value of Dilution 5.6): 30 µg/mL (≈ 65.2 µM)
Structure (SMILES): CCOc1cc([C@@H](CS(C)(=O)=O)N2C(=O)c3cccc(NC(C)=O)c3C2=O)ccc1OC [amorphous Apremilast, N-[2-[(1S)-1-(3-ethoxy-4-Methoxyphenyl)-2-(Methylsulfonyl)ethyl]-2,3-dihydro-1,3-dioxo-1H-isoindol-4-yl]-Acetamide]
crystalline (XRPD) ([2]; Humidity 75%±5%, 0 day): There is no peak of crystalline Apremilast
crystalline (XRPD) ([2]; Humidity 75%±5%, 5 days): There is no peak of crystalline Apremilast
crystalline (XRPD) ([2]; Humidity 75%±5%, 10 days): There is no peak of crystalline Apremilast
crystalline (XRPD) ([2]; Humidity 90%±5%, 0 day): There is no peak of crystalline Apremilast
crystalline (XRPD) ([2]; Humidity 90%±5%, 5 days): There is no peak of crystalline Apremilast
crystalline (XRPD) ([2]; Humidity 90%±5%, 10 days): There is no peak of crystalline Apremilast
crystalline (XRPD) [2, 4]: There is no peak of crystalline Apremilast
crystalline (XRPD) [2, 5]: There is no peak of crystalline Apremilast
crystalline (XRPD) [2, 6]: There is no peak of crystalline Apremilast
crystalline (XRPD) [2, 7]: There is no peak of crystalline Apremilast
crystalline (XRPD) [2, 8]: There is no peak of crystalline Apremilast
crystalline (XRPD) [2, 9]: There is no peak of crystalline Apremilast
crystallization of Apremilast [2, 10]: no crystallization of Apremilast was observed
crystalline (XRPD) ([3]; 0 month): There is no peak of crystalline Apremilast
crystalline (XRPD) ([3]; 1 month): There is no peak of crystalline Apremilast
crystalline (XRPD) ([3]; 2 months): There is no peak of crystalline Apremilast
crystalline (XRPD) ([3]; 3 months): There is no peak of crystalline Apremilast
crystalline (XRPD) ([3]; 6 months): There is no peak of crystalline Apremilast
crystallization of Apremilast [3, 11]: no crystallization of Apremilast was observed
